{
  "source": "patent US10835542B2",
  "about": "“9-aminomethyl minocycline compounds and use thereof in treating community-acquired bacterial pneumonia (CABP)” (Paratek Pharmaceuticals, Inc., priority 2016, dated 2020)",
  "data": [
    {"smiles": "COc1c(N2C[C@@H]3CCCN[C@@H]3C2)c(F)cc2c(=O)c(C(=O)O)cn(C3CC3)c12", "note": "[Moxifloxacin, moxifloxacin, reference compound]", "values": [
      {"measurement": "Total number of deaths", "setting": "ITT population", "result": 4},
      {"measurement": "Subjects who died", "setting": "Safety population", "result": "4 (1.0) n (%)"},
      {"measurement": "Subjects with at least one Adverse Event (AE)", "setting": "Safety population", "result": "200 (51.5) n (%)"},
      {"measurement": "Subjects with at least one Drug-Related Serious TEAE", "setting": "Safety population", "result": "2 (0.5) n (%)"},
      {"measurement": "Subjects with at least one Drug-Related TEAE", "setting": "Safety population", "result": "69 (17.8) n (%)"},
      {"measurement": "Subjects with at least one Serious TEAE", "setting": "Safety population", "result": "26 (6.7) n (%)"},
      {"measurement": "Subjects with at least one Serious TEAE Leading to Death", "setting": "Safety population", "result": "4 (1.0) n (%)"},
      {"measurement": "Subjects with at least one Serious TEAE Leading to Premature Discontinuation of Test Article", "setting": "Safety population", "result": "11 (2.8) n (%)"},
      {"measurement": "Subjects with at least one Severe TEAE", "setting": "Safety population", "result": "26 (6.7) n (%)"},
      {"measurement": "Subjects with at least one TEAE", "setting": "Safety population", "result": "188 (48.5) n (%)"},
      {"measurement": "Subjects with at least one TEAE Leading to Dose Interruption", "setting": "Safety population", "result": "0 n (%)"},
      {"measurement": "Subjects with at least one TEAE Leading to Premature Discontinuation of Study", "setting": "Safety population", "result": "9 (2.3) n (%)"},
      {"measurement": "Subjects with at least one TEAE Leading to Premature Discontinuation of Test Article", "setting": "Safety population", "result": "27 (7.0) n (%)"},
      {"measurement": "TEAE leading to study drug discontinuation: Diarrhoea", "setting": "Safety population", "result": "1 (0.3) n (%)"},
      {"measurement": "TEAE leading to study drug discontinuation: Dyspepsia", "setting": "Safety population", "result": "1 (0.3) n (%)"},
      {"measurement": "TEAE leading to study drug discontinuation: Gastrointestinal Disorders", "setting": "Safety population", "result": "2 (0.5) n (%)"},
      {"measurement": "TEAE leading to study drug discontinuation: Nausea", "setting": "Safety population", "result": "0 n (%)"},
      {"measurement": "TEAE leading to study drug discontinuation: Vomiting", "setting": "Safety population", "result": "0 n (%)"},
      {"measurement": "TEAE: Alanine Aminotransferase Increased", "setting": "Safety population", "result": "18 (4.6) n (%)"},
      {"measurement": "TEAE: Aspartate Aminotransferase Increased", "setting": "Safety population", "result": "14 (3.6) n (%)"},
      {"measurement": "TEAE: Constipation", "setting": "Safety population", "result": "6 (1.5) n (%)"},
      {"measurement": "TEAE: Diarrhoea", "setting": "Safety population", "result": "31 (8.0) n (%)"},
      {"measurement": "TEAE: Dyspepsia", "setting": "Safety population", "result": "2 (0.5) n (%)"},
      {"measurement": "TEAE: Gamma-Glutamyltransferase Increased", "setting": "Safety population", "result": "8 (2.1) n (%)"},
      {"measurement": "TEAE: Headache", "setting": "Safety population", "result": "5 (1.3) n (%)"},
      {"measurement": "TEAE: Hypertension", "setting": "Safety population", "result": "11 (2.8) n (%)"},
      {"measurement": "TEAE: Insomnia", "setting": "Safety population", "result": "8 (2.1) n (%)"},
      {"measurement": "TEAE: Nausea", "setting": "Safety population", "result": "21 (5.4) n (%)"},
      {"measurement": "TEAE: Pseudomembranous Colitis", "setting": "Safety population", "result": "1 (0.3) n (%)"},
      {"measurement": "TEAE: Vomiting", "setting": "Safety population", "result": "6 (1.5) n (%)"},
      {"measurement": "Total Number of AEs", "setting": "Safety population", "result": 520},
      {"measurement": "Total Number of TEAEs", "setting": "Safety population", "result": 461}
    ]}
  ]
}
